These results are taken from PMC2787644 (Clinical cancer research : an official journal of the …, 2009).

Read-outs that look alike come from different tables or passages of the source.

In general, Cmax refers to the highest concentration seen after dosing.

One data set has as its system cisplatin-refractory GCT. Conditions: single agent, cited from earlier work.
Data set [1] is classed as in vivo, human. Conditions: component of flavopiridol + FOLFOX.
Data set [2] is described as follows: Flavopiridol plasma pharmacokinetics. It counts as in vivo. Conditions: human, intravenous, 80 mg/m2, Cmax, cohort 7a (80 mg/m^2).
For data set [3] the following is noted: 70 mg/m^2, combined with irinotecan; cited from earlier work.

As to `O=C1[O][Pt]2([NH][C@@H]3CCCC[C@H]3[NH]2)[O]C1=O` [oxaliplatin], the Overall response rate in the data set with cisplatin-refractory GCT (60 mg/m^2 weekly on days 1, 8, 15 every 28 days) is listed as 6%. Also, the Objective response rate in the data set with cisplatin-refractory GCT (130 mg/m^2 every 2 weeks) is 19%.
As for `O=c1[nH]cc(F)c(=O)[nH]1` [5FU, fluorouracil], in data set [1] (every 2 weeks (cohort 6a)), the “Maximum tolerated dose (MTD), continuous infusion over 48 hours” value was 1800 mg/m^2. The “Maximum tolerated dose (MTD), bolus” value in data set [1] (every 2 weeks (fixed dose)) came out at 400 mg/m^2.
With `CN1CC[C@H](c2c(O)cc(O)c3c(=O)cc(-c4ccccc4Cl)oc23)[C@H](O)C1` [flavopiridol, Flavopiridol], the Cmax is 2260 nM in data set [2] (the 3 patients who experienced a DLT), 1450 nM in data set [2] (the other patients in the cohort) and 2760 ± 540 nM in data set [3].
